According to patent US20130131161A1, “METHODS AND COMPOSITIONS FOR CARDIOVASCULAR DISEASES AND CONDITIONS” (priority 2009, published 2013):

System: Human umbilical vein endothelial cells (HUVECs)
Test: eNOS activity analysis: NO, ONOO− and NO/ONOO− release from HUVECs of 50 genotyped donors in response to LA-419 (Example 2)
Type: cell-based
Details: for Net increase over control ONOO− (mean ± sd) / Peak release NO (mean ± sd) / Peak release NO/ONOO− (mean ± sd) / Peak release ONOO− (mean ± sd) / Net increase over control NO (mean ± sd) / Net increase over control NO/ONOO− (mean ± sd) / % Change Ratio, % Change NO/% Change ONOO− (mean ± sd): LA-419 1 μM; for % Change NO (mean ± sd) / % Change NO/ONOO− (mean ± sd) / % Change ONOO− (mean ± sd): LA-419 5 μM vs control
Experimental: Concurrent measurements of NO and ONOO^− were carried out with tandem electrochemical nanosensors combined into one working unit with a total diameter of 200-500 nm (FIG. 1). Their design was based on previously developed and well-characterized chemically modified carbon-fiber technology (Malinski and Taha, 1992; Lvovich and Scheeline, 1997). Each of the nanosensors was made by depositing a sensing material on the tip of a carbon fiber (length 4-5 μm, diameter 0.2-0.5 μm). The fibers were sealed with nonconductive epoxy and electrically connected to copper wires with conductive silver epoxy. A conductive film of polymeric nickel (II) tetrakis(3-methoxy-4-hydroxyphenyl)porphyrin for the NO-sensor and polymeric film of Mn (III) [2.2]paracyclophanylporphyrin was used for the ONOO^−-sensor.
A module of NO/ONOO^− nanosensors (diameter 1-2 μm) with a platinum wire (0.1 mm) counter electrode and saturated calomel reference electrode (SCE) were applied. Differential pulse voltammetry (DPV) and amperometry were performed with a computer-based Gamry VFP600 multichannel potentiostat. DPV was used to measure the basal NO and ONOO^− concentrations, and amperometry was used to measure changes in NO and ONOO^− concentrations from its basal level with time. The DPV current at the peak potential characteristic for NO oxidation (0.65 V) and ONOO^− reduction (−0.45 V) was directly proportional to the local concentrations of these compounds in the immediate vicinity of the sensor. Linear calibration curves (current vs. concentration) were constructed for each sensor from 10 nM to 3 μM before and after measurements with aliquots of NO and ONOO^− standard solutions, respectively. The detection limit of the sensors was 1.0 nM.
The quantification of each analyte (concentration in nM) was performed using a maximum current from amperograms and standard calibration curves. A reproducibility of measurements with nanosensors is relatively high (between 5-12%). […] The sensors were slowly raised 5±2 μm from the surface of a single endothelial cell. The eNOS agonist, calcium ionophore A23187 (CaI) as well as the different drugs were then added to the surrounding media at the cell surface with a nanoinjector that was also positioned by a computer controlled-micromanipulator.
This example describes the genotype-specific response of the three major eNOS variants to 1 μM and 5 μM concentrations of LA-419. The three major genetic polymorphisms studied were the Glu298Asp variant (E298D or 894G→T) in exon 7 of […], the −786T→C variant in the promoter region, and the intron 4 polymorphism (VNTR). All of these variants have possible effects on the cardiovascular system and endothelial dysfunction. For this study, human umbilical vein endothelial cells (HUVECs) from 50 donors between 18 and 32 years of age were used.
For the analysis several analysis techniques were employed. First, the effect of genotype on NO and ONOO^− release was explored within the different concentrations of LA-419 (control, 1 μM, 5 μM), calculated as the average peak release (nmols/L) of NO, ONOO^−, and NO/ONOO^−. The effect of genotype on the net increase in NO, ONOO^−, and NO/ONOO^− for LA-419 (1 μM and 5 μM) as compared to control was also measured. In addition, an analysis was done on the effect of genotype on the % change in NO, ONOO^−, and NO/ONOO^− production for LA-419 (1 μM and 5 μM), calculated as:
% Change=[(avg. LA-419−avg. control)/(avg. control)]*100
Finally, an evaluation was undertaken concerning the effect of genotype on the production of NO, ONOO^−, and NO/ONOO^− as the fold difference of control for LA-419 (1 μM and 5 μM), calculated as:
Fold Difference=(avg. LA-419)/(avg. control)
Within each calculation technique the results were compared for statistical significance using a non-parametric ANOVA Kruskal-Wallace test or a non-parametric Mann-Whitney U test. Statistical significance was set at a p-value <0.05 in a two-tailed distribution. […]

[1] = HUVECs Intron 4 variant b/a, a/a, c/c
[2] = HUVECs T-786C variant T/C & C/C
[3] = HUVEC donor Race Caucasian/Black

With `CC(=O)SC1COC2C(O[N+](=O)[O-])COC12` (stereo not drawn) [LA-419, S-(6-Nitro-oxi-hexahydro-furo[3,2-b]furan-3-1-il)thioacetate] the “Net increase over control ONOO− (mean ± sd)” value (HUVECs Intron 4 variant b/a) was −37.57 (99.15) nmols/L, the “Peak release NO (mean ± sd)” value (HUVECs Intron 4 variant b/a) was 377.23 (69.05) nmols/L and the “Peak release NO/ONOO− (mean ± sd)” value (HUVECs Intron 4 variant b/a) was 1.25 (0.46). For the same compound, the “Peak release ONOO− (mean ± sd)” value (HUVECs Intron 4 variant b/a) was 330.47 (88.93) nmols/L, the “Net increase over control NO (mean ± sd)” value [1] was 27.83 (86.07) nmols/L and the “Net increase over control NO/ONOO− (mean ± sd)” value [1] was 0.16 (0.46). For the same compound, the “Net increase over control ONOO− (mean ± sd)” value [1] was −21.43 (98.29) nmols/L, the “Peak release NO (mean ± sd)” value [1] was 366.00 (71.50) nmols/L and the “Peak release NO/ONOO− (mean ± sd)” value [1] was 1.15 (0.48). For the same compound, the “Peak release ONOO− (mean ± sd)” value [1] was 356.55 (98.40) nmols/L, the “Net increase over control NO (mean ± sd)” value (HUVECs Intron 4 variant b/b) was 39.66 (70.27) nmols/L and the “Net increase over control NO/ONOO− (mean ± sd)” value (HUVECs Intron 4 variant b/b) was 0.29 (0.47). For the same compound, the “Net increase over control ONOO− (mean ± sd)” value (HUVECs Intron 4 variant b/b) was −51.71 (108.03) nmols/L, the “Peak release NO (mean ± sd)” value (HUVECs Intron 4 variant b/b) was 393.18 (77.21) nmols/L and the “Peak release NO/ONOO− (mean ± sd)” value (HUVECs Intron 4 variant b/b) was 1.33 (0.42). For the same compound, the “Peak release ONOO− (mean ± sd)” value (HUVECs Intron 4 variant b/b) was 317.60 (74.77) nmols/L, the “Net increase over control NO (mean ± sd)” value (HUVECs Intron 4 variant c/c) was −98.67 (0) nmols/L and the “Net increase over control NO/ONOO− (mean ± sd)” value (HUVECs Intron 4 variant c/c) was −0.23 (0). For the same compound, the “Net increase over control ONOO− (mean ± sd)” value (HUVECs Intron 4 variant c/c) was −2.67 (0) nmols/L, the “Peak release NO (mean ± sd)” value (HUVECs Intron 4 variant c/c) was 270.00 (0) nmols/L and the “Peak release NO/ONOO− (mean ± sd)” value (HUVECs Intron 4 variant c/c) was 0.64 (0). The “Peak release ONOO− (mean ± sd)” value (HUVECs Intron 4 variant c/c) was 423.67 (0) nmols/L, the “% Change Ratio, % Change NO/% Change ONOO− (mean ± sd)” value (HUVECs T-786C variant C/C) was −0.80 (1.04) and the “Net increase over control NO (mean ± sd)” value (HUVECs T-786C variant C/C) was 2.08 (39.61) nmols/L. For the same compound, the “Net increase over control NO/ONOO− (mean ± sd)” value (HUVECs T-786C variant C/C) was −0.48 (0.48), the “Net increase over control ONOO− (mean ± sd)” value (HUVECs T-786C variant C/C) was 25.25 (135.63) nmols/L and the “Peak release NO (mean ± sd)” value (HUVECs T-786C variant C/C) was 334.25 (68.06) nmols/L. The “Peak release NO/ONOO− (mean ± sd)” value (HUVECs T-786C variant C/C) was 0.88 (0.50), the “Peak release ONOO− (mean ± sd)” value (HUVECs T-786C variant C/C) was 430.17 (124.82) nmols/L and the “% Change Ratio, % Change NO/% Change ONOO− (mean ± sd)” value (HUVECs T-786C variant T/C) was −1.06 (0.82). For the same compound, the “Net increase over control NO (mean ± sd)” value (HUVECs T-786C variant T/C) was 46.77 (81.32) nmols/L, the “Net increase over control NO/ONOO− (mean ± sd)” value (HUVECs T-786C variant T/C) was −0.99 (0.94) and the “Net increase over control ONOO− (mean ± sd)” value (HUVECs T-786C variant T/C) was −61.09 (111.68) nmols/L. The “Peak release NO (mean ± sd)” value (HUVECs T-786C variant T/C) was 396.32 (73.63) nmols/L, the “Peak release NO/ONOO− (mean ± sd)” value (HUVECs T-786C variant T/C) was 1.35 (0.44) and the “Peak release ONOO− (mean ± sd)” value (HUVECs T-786C variant T/C) was 315.74 (78.13) nmols/L. For the same compound, the “Net increase over control NO (mean ± sd)” value [2] was 40.15 (77.70) nmols/L, the “Net increase over control NO/ONOO− (mean ± sd)” value [2] was −0.91 (0.90) and the “Net increase over control ONOO− (mean ± sd)” value [2] was −48.30 (116.85) nmols/L. The “Peak release NO (mean ± sd)” value [2] was 387.12 (75.01) nmols/L, the “Peak release NO/ONOO− (mean ± sd)” value [2] was 1.28 (0.47) and the “Peak release ONOO− (mean ± sd)” value [2] was 332.69 (93.16) nmols/L. For the same compound, the “% Change Ratio, % Change NO/% Change ONOO− (mean ± sd)” value (HUVECs T-786C variant T/T) was 1.06 (9.40), the “Net increase over control NO (mean ± sd)” value (HUVECs T-786C variant T/T) was 30.80 (64.85) nmols/L and the “Net increase over control NO/ONOO− (mean ± sd)” value (HUVECs T-786C variant T/T) was 0.77 (8.26). For the same compound, the “Net increase over control ONOO− (mean ± sd)” value (HUVECs T-786C variant T/T) was −27.14 (82.12) nmols/L, the “Peak release NO (mean ± sd)” value (HUVECs T-786C variant T/T) was 380.73 (75.61) nmols/L and the “Peak release NO/ONOO− (mean ± sd)” value (HUVECs T-786C variant T/T) was 1.22 (0.43). The “Peak release ONOO− (mean ± sd)” value (HUVECs T-786C variant T/T) was 335.82 (80.98) nmols/L, the “ONOO− production versus control” value (LA-419 5 μM (Table b2)) was “decrease” and the “% Change NO (mean ± sd)” value [3] was 16.93 (4.34) %. The “% Change NO/ONOO− (mean ± sd)” value [3] was 58.92 (16.01) %, the “% Change ONOO− (mean ± sd)” value [3] was −25.30 (9.90) % and the “% Change NO (mean ± sd)” value (HUVEC donor Race Not Reported) was 18.69 (5.53) %. For the same compound, the “% Change NO/ONOO− (mean ± sd)” value (HUVEC donor Race Not Reported) was 75.55 (20.43) %, the “% Change ONOO− (mean ± sd)” value (HUVEC donor Race Not Reported) was −31.56 (5.34) % and the “% Change NO (mean ± sd)” value (HUVEC donor alpha) was 12.82 (5.82) %. For the same compound, the “% Change NO/ONOO− (mean ± sd)” value (HUVEC donor alpha) was 36.30 (14.59) %, the “% Change ONOO− (mean ± sd)” value (HUVEC donor alpha) was −16.43 (6.22) % and the “% Change NO (mean ± sd)” value (HUVEC donor beta) was 14.30 (6.78) %. For the same compound, the “% Change NO/ONOO− (mean ± sd)” value (HUVEC donor beta) was 39.65 (12.24) %, the “% Change ONOO− (mean ± sd)” value (HUVEC donor beta) was −17.84 (5.90) % and the “% Change NO (mean ± sd)” value (HUVEC donor delta) was 13.97 (0) %. For the same compound, the “% Change NO/ONOO− (mean ± sd)” value (HUVEC donor delta) was 57.83 (0) %, the “% Change ONOO− (mean ± sd)” value (HUVEC donor delta) was −27.79 (0) % and the “% Change NO (mean ± sd)” value (HUVEC donor gamma) was 17.23 (7.65) %. For the same compound, the “% Change NO/ONOO− (mean ± sd)” value (HUVEC donor gamma) was 57.79 (12.24) %, the “% Change ONOO− (mean ± sd)” value (HUVEC donor gamma) was −25.17 (5.79) % and the “% Change NO (mean ± sd)” value (HUVECs G894T variant G/G) was 15.93 (6.37) %. The “% Change NO/ONOO− (mean ± sd)” value (HUVECs G894T variant G/G) was 47.91 (17.67) %, the “% Change ONOO− (mean ± sd)” value (HUVECs G894T variant G/G) was −20.65 (7.38) % and the “% Change NO (mean ± sd)” value (HUVECs G894T variant G/T) was 13.43 (6.31) %. For the same compound, the “% Change NO/ONOO− (mean ± sd)” value (HUVECs G894T variant G/T) was 38.86 (13.20) %, the “% Change ONOO− (mean ± sd)” value (HUVECs G894T variant G/T) was −17.85 (6.26) % and the “% Change NO (mean ± sd)” value (HUVECs G894T variant T/T) was 11.67 (6.86) %. For the same compound, the “% Change NO/ONOO− (mean ± sd)” value (HUVECs G894T variant T/T) was 39.03 (13.43) %, the “% Change ONOO− (mean ± sd)” value (HUVECs G894T variant T/T) was −19.03 (8.40) % and the “% Change NO (mean ± sd)” value (HUVECs Intron 4 variant a/a) was 13.60 (3.88) %. For the same compound, the “% Change NO/ONOO− (mean ± sd)” value (HUVECs Intron 4 variant a/a) was 36.75 (3.58) %, the “% Change ONOO− (mean ± sd)” value (HUVECs Intron 4 variant a/a) was −16.60 (3.31) % and the “% Change NO (mean ± sd)” value (HUVECs Intron 4 variant b/a) was 16.81 (6.88) %. For the same compound, the “% Change NO/ONOO− (mean ± sd)” value (HUVECs Intron 4 variant b/a) was 45.81 (14.36) %.
